According to patent US10787447B2, “Pharmaceutical compounds” (Heptares Therapeutics Limited, priority 2018, dated 2020):

Columns and labels:
Format in all cases: cell-based
[1] = biological target: T1, human muscarinic M4 receptor (Homo sapiens, UniProt P08173); experiment: Alphascreen Surefire phospho-ERK1/2 functional assay, M4; details: for % Emax cf. ACh, M4: CHO cells stably expressing human M4; for EC50: pEC50 M4, CHO cells stably expressing human M4, phospho-ERK1/2
T1 sequence (P08173 1-479): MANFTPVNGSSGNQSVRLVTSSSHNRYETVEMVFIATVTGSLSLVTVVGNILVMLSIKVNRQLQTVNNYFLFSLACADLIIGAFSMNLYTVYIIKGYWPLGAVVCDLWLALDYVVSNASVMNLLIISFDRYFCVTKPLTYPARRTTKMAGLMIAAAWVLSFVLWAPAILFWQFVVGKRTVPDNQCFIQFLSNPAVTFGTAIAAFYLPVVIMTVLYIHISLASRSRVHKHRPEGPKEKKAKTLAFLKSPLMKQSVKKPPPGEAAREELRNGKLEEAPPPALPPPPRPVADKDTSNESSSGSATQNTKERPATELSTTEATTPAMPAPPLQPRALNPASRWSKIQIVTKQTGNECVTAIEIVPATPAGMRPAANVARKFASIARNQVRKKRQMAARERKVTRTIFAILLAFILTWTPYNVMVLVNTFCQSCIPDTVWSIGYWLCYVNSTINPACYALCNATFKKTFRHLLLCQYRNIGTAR
Procedure, shortened: (§1)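 CHO cells stably expressing human M1, M2, M3 or M4 receptor, serum-starved overnight, then stimulated with agonist for 5 min at 37 °C. Cells lysed for 15 min and phospho-ERK1/2 detected in the lysate by AlphaScreen SureFire.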

[2] = biological target: T2, human muscarinic M1 receptor (Homo sapiens, UniProt P11229); experiment: Alphascreen Surefire phospho-ERK1/2 functional assay, M1; details: for % Emax cf. ACh, M1: CHO cells stably expressing human M1; for EC50: pEC50 M1, CHO cells stably expressing human M1, phospho-ERK1/2
T2 sequence (P11229 1-460): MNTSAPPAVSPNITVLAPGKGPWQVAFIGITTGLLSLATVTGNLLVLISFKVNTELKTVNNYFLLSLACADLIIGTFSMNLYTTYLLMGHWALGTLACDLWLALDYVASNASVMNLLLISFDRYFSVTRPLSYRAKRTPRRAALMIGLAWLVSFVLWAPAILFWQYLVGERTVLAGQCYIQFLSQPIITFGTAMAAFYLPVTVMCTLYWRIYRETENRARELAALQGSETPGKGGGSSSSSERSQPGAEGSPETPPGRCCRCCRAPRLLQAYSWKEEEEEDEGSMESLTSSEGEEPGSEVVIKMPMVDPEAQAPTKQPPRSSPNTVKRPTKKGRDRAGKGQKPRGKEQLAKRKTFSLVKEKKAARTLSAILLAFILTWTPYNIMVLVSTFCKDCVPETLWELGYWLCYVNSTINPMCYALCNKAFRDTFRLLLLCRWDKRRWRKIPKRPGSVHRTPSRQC
Procedure, shortened: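 Stably transfected CHO cells, serum-starved overnight, then exposed to agonist for 5 min at 37 °C. Cells lysed and phospho-ERK1/2 measured by AlphaScreen SureFire.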

[3] = biological target: T3, human muscarinic M2 receptor (Homo sapiens, UniProt P08172); experiment: Alphascreen Surefire phospho-ERK1/2 functional assay, M2; details: for Emax: CHO, read-out: % Emax cf. ACh, M2, CHO cells stably expressing human M2; for Emax / % Emax cf. ACh, M2: Emax relative to ACh; for EC50: pEC50 M2, CHO cells stably expressing human M2, phospho-ERK1/2; for % Emax cf. ACh, M2: CHO cells stably expressing human M2
T3 sequence (P08172 1-466): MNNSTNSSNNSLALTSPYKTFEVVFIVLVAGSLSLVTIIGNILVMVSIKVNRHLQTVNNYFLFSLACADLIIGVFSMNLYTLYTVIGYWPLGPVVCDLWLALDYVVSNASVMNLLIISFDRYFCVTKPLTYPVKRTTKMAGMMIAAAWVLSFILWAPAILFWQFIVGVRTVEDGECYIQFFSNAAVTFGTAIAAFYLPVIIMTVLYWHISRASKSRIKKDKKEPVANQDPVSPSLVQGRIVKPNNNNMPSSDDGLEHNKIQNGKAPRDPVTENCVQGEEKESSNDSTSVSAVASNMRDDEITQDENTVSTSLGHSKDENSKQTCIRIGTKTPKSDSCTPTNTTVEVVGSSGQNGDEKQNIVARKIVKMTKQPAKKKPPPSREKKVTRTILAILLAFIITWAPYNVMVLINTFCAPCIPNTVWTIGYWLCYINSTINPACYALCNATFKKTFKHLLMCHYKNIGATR
Procedure, shortened: as §1

[4] = biological target: T4, human muscarinic M3 receptor (Homo sapiens, UniProt P20309); experiment: Alphascreen Surefire phospho-ERK1/2 functional assay, M3; details: for Emax: CHO, read-out: % Emax cf. ACh, M3, CHO cells stably expressing human M3; for Emax / % Emax cf. ACh, M3: Emax relative to ACh; for EC50: pEC50 M3, CHO cells stably expressing human M3, phospho-ERK1/2; for % Emax cf. ACh, M3: CHO cells stably expressing human M3
T4 construct: expressed in transfected cells
Procedure, shortened: as §1

[5] = Emax relative to ACh, listed as 2-2 Isomer 1
[6] = Emax relative to ACh, listed as 4-1 Isomer 2
[7] = Emax relative to ACh, listed as 6-6 Isomer 2
[8] = Emax relative to ACh, listed as 1-2 Isomer 1
[9] = Emax relative to ACh, listed as 5-4 Isomer 2b

T4 sequence (P20309 whole entry): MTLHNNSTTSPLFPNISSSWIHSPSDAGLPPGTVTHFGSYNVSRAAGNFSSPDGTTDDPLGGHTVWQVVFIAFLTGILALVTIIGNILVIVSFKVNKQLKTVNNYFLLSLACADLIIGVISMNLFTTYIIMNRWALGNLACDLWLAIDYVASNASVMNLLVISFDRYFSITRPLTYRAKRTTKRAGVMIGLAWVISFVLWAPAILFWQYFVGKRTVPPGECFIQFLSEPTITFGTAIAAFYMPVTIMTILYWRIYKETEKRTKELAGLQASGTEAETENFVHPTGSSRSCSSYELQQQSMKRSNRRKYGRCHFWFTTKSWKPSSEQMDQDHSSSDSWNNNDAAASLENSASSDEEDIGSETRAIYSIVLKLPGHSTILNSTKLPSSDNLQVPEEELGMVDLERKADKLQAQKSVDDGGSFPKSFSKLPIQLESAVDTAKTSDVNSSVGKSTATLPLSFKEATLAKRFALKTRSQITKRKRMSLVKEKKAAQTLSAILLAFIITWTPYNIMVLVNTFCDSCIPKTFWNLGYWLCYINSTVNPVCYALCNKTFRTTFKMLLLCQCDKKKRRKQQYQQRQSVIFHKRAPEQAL

Which results are given for `CCOC(=O)N1C2COCC1CC(N1CCC3(CC1)CNC(=O)C3)C2` (single isomer, unassigned) [Example 5-2 Isomer 2, Ethyl 7-(3-oxo-2,8-diazaspiro[4.5]dec-8-yl)-3-oxa-9-azabicyclo[3.3.1]nonane-9-carboxylate]?
% Emax cf. ACh, M4 ([1]; Emax relative to ACh): 18%; EC50 [1]: > 20000 nM; % Emax cf. ACh, M1 ([2]; Emax relative to ACh, listed as 5-2 Isomer 2): 61%; EC50 [2]: 43.7 nM; Emax [3]: 8%; EC50 [3]: > 20000 nM; Emax [4]: 5%; EC50 [4]: > 20000 nM

With `CCOC(=O)N1C2COCC1CC(N1CCC(n3cc(C)cn3)CC1)C2` (single isomer, unassigned) [Example 1-3 Isomer 1, Ethyl 7-[4-(4-methyl-1H-pyrazol-1-yl)piperidin-1-yl]-3-oxa-9-azabicyclo[3.3.1]nonane-9-carboxylate] as the molecule, how does the Emax ([1]; CHO, read-out: % Emax cf. ACh, M4, CHO cells stably expressing human M4, Emax relative to ACh) read?
The Emax was 99%.

And the EC50 [1]?
The EC50 was 7.24 nM.

What about the “% Emax cf. ACh, M1” value ([2]; Emax relative to ACh, listed as 1-3 Isomer 1) of the same molecule?
The value was 124%.

And the EC50 [2]?
Its EC50 is 55 nM.

What about the “% Emax cf. ACh, M2” value ([3]; listed as 1-3 Isomer 1) of the same molecule?
The value was 112%.

And the EC50 [3]?
The EC50 was 282 nM.

And the “% Emax cf. ACh, M3” value ([4]; listed as 1-3 Isomer 1)?
Its value is 40%.

What about the EC50 [4] of the same molecule?
Its EC50 is 2510 nM.

For `CCOC(=O)N1C2COCC1CC(N1CCC(N(CC(C)C)C(C)=O)CC1)C2` (single isomer, unassigned) [Example 6-1 Isomer 1, Ethyl 7-{4-[acetyl(2-methylpropyl)amino]piperidin-1-yl}-3-oxa-9-azabicyclo[3.3.1]nonane-9-carboxylate], which “% Emax cf. ACh, M4” value ([1]; Emax relative to ACh, listed as 6-1 Isomer 1) is on record?
The value was 77%.

What about the EC50 [1] of the same molecule?
The EC50 was 151 nM.

What about the Emax ([2]; CHO, read-out: % Emax cf. ACh, M1, CHO cells stably expressing human M1, Emax relative to ACh) of the same molecule?
Its Emax is 93%.

And the EC50 [2]?
The EC50 was 178 nM.

What about the “% Emax cf. ACh, M2” value ([3]; listed as 6-1 Isomer 1) of the same molecule?
The value was 26%.

And the EC50 [3]?
The EC50 was over 20000 nM.

And the “% Emax cf. ACh, M3” value ([4]; listed as 6-1 Isomer 1)?
Its value is 7%.

What about the EC50 [4] of the same molecule?
Its EC50 is over 20000 nM.

What does the source list for `CCOC(=O)N1C2COCC1CC(N1CCC(c3cccnc3OC)CC1)C2` (single isomer, unassigned) [Example 2-2 Isomer 1, Ethyl 7-[4-(2-methoxypyridin-3-yl)piperidin-1-yl]-3-oxa-9-azabicyclo[3.3.1]nonane-9-carboxylate]?
% Emax cf. ACh, M4 [1, 5]: 61%; EC50 [1]: 36.3 nM; % Emax cf. ACh, M1 [2, 5]: 63%; EC50 [2]: > 20000 nM; Emax [3]: 3%; EC50 [3]: > 20000 nM; Emax [4]: 4%; EC50 [4]: > 20000 nM

For `CCOC(=O)N1C2COCC1CC(N1CCC(N3CC(F)(F)C[C@@H]3CO)CC1)C2` (single isomer, unassigned) [Example 4-1 Isomer 2], which “% Emax cf. ACh, M4” value [1, 6] is on record?
Its value is 59%.

And the EC50 [1]?
Its EC50 is 100 nM.

What about the “% Emax cf. ACh, M1” value [2, 6] of the same molecule?
The value was 47%.

What about the EC50 [2] of the same molecule?
The EC50 was 398 nM.

And the “% Emax cf. ACh, M2” value ([3]; listed as 4-1 Isomer 2)?
The value was 17%.

And the EC50 [3]?
The EC50 was over 20000 nM.

What about the “% Emax cf. ACh, M3” value ([4]; listed as 4-1 Isomer 2) of the same molecule?
Its value is 4%.

With `CCOC(=O)N1C2COCC1CC(N1CCC(N3CCCCC3=O)CC1)C2` (single isomer, unassigned) [Example 6-6 Isomer 2, Ethyl 7-(2-oxo-1,4′-bipiperidin-1′-yl)-3-oxa-9-azabicyclo[3.3.1]nonane-9-carboxylate] as the molecule, how does the “% Emax cf. ACh, M4” value [1, 7] read?
Its value is 48%.

What about the EC50 [1] of the same molecule?
The EC50 was 81.3 nM.

And the “% Emax cf. ACh, M1” value [2, 7]?
Its value is 50%.

And the EC50 [2]?
Its EC50 is 977 nM.

What about the “% Emax cf. ACh, M2” value ([3]; listed as 6-6 Isomer 2) of the same molecule?
The value was 6%.

What about the EC50 [3] of the same molecule?
Its EC50 is over 20000 nM.

What about the “% Emax cf. ACh, M3” value ([4]; listed as 6-6 Isomer 2) of the same molecule?
The value was 3%.

Which “% Emax cf. ACh, M4” value [1, 8] does the source give for `CCOC(=O)N1C2COCC1CC(N1CCC(n3cc(Cl)cn3)CC1)C2` (single isomer, unassigned) [Example 1-2 Isomer 1, Ethyl 7-[4-(4-chloro-1H-pyrazol-1-yl)piperidin-1-yl]-3-oxa-9-azabicyclo[3.3.1]nonane-9-carboxylate] here?
The value was 78%.

And the EC50 [1]?
The EC50 was 2.88 nM.

What about the “% Emax cf. ACh, M1” value [2, 8] of the same molecule?
The value was 96%.

And the EC50 [2]?
The EC50 was 15.1 nM.

What about the “% Emax cf. ACh, M2” value ([3]; listed as 1-2 Isomer 1) of the same molecule?
Its value is 69%.

And the EC50 [3]?
Its EC50 is 87.1 nM.

And the “% Emax cf. ACh, M3” value [4]?
The value was 2%.

For `CCOC(=O)N1C2COCC1CC(N1CCC3(CC1)OC(=O)NC3CC)C2` (single isomer, unassigned) [Example 5-4 Isomer 2b, Ethyl 7-(4-ethyl-2-oxo-1-oxa-3,8-diazaspiro[4.5]dec-8-yl)-3-oxa-9-azabicyclo[3.3.1]nonane-9-carboxylate], which “% Emax cf. ACh, M4” value [1, 9] is on record?
Its value is 20%.

What about the EC50 [1] of the same molecule?
Its EC50 is over 20000 nM.

And the “% Emax cf. ACh, M1” value [2, 9]?
Its value is 25%.

And the EC50 [2]?
Its EC50 is 74.1 nM.

And the “% Emax cf. ACh, M2” value ([3]; listed as 5-4 Isomer 2b)?
Its value is 1%.

What about the “% Emax cf. ACh, M3” value [4] of the same molecule?
Its value is 4%.
